Measurements from BindingDB's records for doi:10.1021/bi8010362 (Kyoto University, 2008).

Target: NADH-ubiquinone oxidoreductase chain 1 (Bos taurus, UniProt P03887)
Assay: Inhibition Assay
Text: Inhibition assay using NADH-ubiquinone oxidoreductase (complex I).

Sequence of NADH-ubiquinone oxidoreductase chain 1 (P03887 whole entry): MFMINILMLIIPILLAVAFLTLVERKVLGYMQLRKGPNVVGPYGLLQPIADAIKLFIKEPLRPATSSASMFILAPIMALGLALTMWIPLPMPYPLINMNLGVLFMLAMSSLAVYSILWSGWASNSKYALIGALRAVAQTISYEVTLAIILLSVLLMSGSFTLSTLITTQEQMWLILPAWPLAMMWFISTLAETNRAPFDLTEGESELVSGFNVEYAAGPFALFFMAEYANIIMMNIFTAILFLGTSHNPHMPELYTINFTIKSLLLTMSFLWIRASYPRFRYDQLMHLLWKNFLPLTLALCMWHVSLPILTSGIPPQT

Row | IC50 [nM] | Compound
1 | 12 | O[C@H](CCCCCc1ccccc1)CN1CCN(C[C@H](O)CCCCCc2ccccc2)CC1 [Piperazine derivative, 8]
2 | 1.2 | O[C@H](CCCCCCCc1ccccc1)CN1CCN(C[C@H](O)CCCCCCCc2ccccc2)CC1 [Piperazine derivative, 10]
3 | 2.2 | c1ccc(CCCCCCCCN2CCN(CCCCCCCCc3ccccc3)CC2)cc1 [Piperazine derivative, 19]
4 | 1100 | C[N+]1(C[C@H](O)CCCCCc2ccccc2)CCN(C[C@H](O)CCCCCc2ccccc2)CC1 [Piperazine derivative, 22]
5 | 4700 | C[N+]1(C[C@H](O)CCCCCc2ccccc2)CC[N+](C)(C[C@H](O)CCCCCc2ccccc2)CC1 (some centres undefined) [Piperazine derivative, 23]
6 | 3.6 | c1ccc(CCCCCCCCCN2CCN(CCCCCCCCCc3ccccc3)CC2)cc1 [Piperazine derivative, 20]
7 | 2.8 | O[C@H](CCCCCCCc1ccccc1)CN1C[C@H]2C[C@@H]1CN2C[C@H](O)CCCCCCCc1ccccc1 [Piperazine derivative, 14]
8 | 5.9 | O[C@H](CCCCCCCCCc1ccccc1)CN1CCN(C[C@H](O)CCCCCCCCCc2ccccc2)CC1 [Piperazine derivative, 11]
9 | 2.3 | O[C@@H](CCCCCCc1ccccc1)CN1CCN(C[C@@H](O)CCCCCCc2ccccc2)CC1 [Piperazine derivative, 12]
10 | 2.6 | CCCCCCCCCCC(O)CN1CCN(CC(O)CCCCCCCCCC)CC1 (centres undefined) [Piperazine derivative, 5]
11 | 1.7 | O[C@H](CCCCCCCc1ccccc1)CN1CCCN(C[C@H](O)CCCCCCCc2ccccc2)CC1 [Piperazine derivative, 13]
12 | 1300 | c1ccc(CCCCN2CCN(CCCCc3ccccc3)CC2)cc1 [Piperazine derivative, 21]
13 | 26 | CCCCCCCCCCCCCCC(O)CN1CCN(CC(O)CCCCCC)CC1 (centres undefined) [Piperazine derivative, 6]
14 | > 22000 | CCCCCC(O)CN1CCN(CC(O)CCCCC)CC1 (centres undefined) [Piperazine derivative, 4]
15 | 1.7 | O[C@H](CCCCCCc1ccccc1)CN1CCN(C[C@H](O)CCCCCCc2ccccc2)CC1 [Piperazine derivative, 9]
16 | 1 | N#[N+]Nc1c(F)c(F)c(COCCCCC[C@@H](O)CN2CCN(C[C@H](O)CCCCCOc3ccc(I)cc3)CC2)c(F)c1F [Piperazine derivative, 24]
17 | 12 | c1ccc(CCCCCCCN2CCN(CCCCCCCc3ccccc3)CC2)cc1 [Piperazine derivative, 18]
18 | 670 | CN(C[C@H](O)CCCCCCCc1ccccc1)[C@H]1CCCC[C@@H]1N(C)C[C@H](O)CCCCCCCc1ccccc1 [Piperazine derivative, 15]
19 | 110 | CCCCCCCCCCCCCCCCC(O)CN1CCN(CC(O)CCCC)CC1 (centres undefined) [Piperazine derivative, 7]
